Experimental data: US20140199372A1, “MICROBIAL GROWTH FACTORS” (NORTHEASTERN UNIVERSITY, priority 2011, published 2014)
Where two headings read alike, the source gives them in different places.

What was measured:
KLE1280 = test: Induction of growth of KLE1280 by quinones on plates; assay type: cell-based, Porphyromonas sp. KLE1280
Method: Serial dilutions of dental plaque from a healthy individual were spread onto Fastidious Anaerobe Agar plates containing 5% sheep blood and 5% pooled human saliva (FBS) and incubated anaerobically. Small colonies growing next to large ones on dense plates were picked and spread onto fresh FBS plates. A helper mix of colonies growing around individual small colonies was spotted on these plates. Isolates were identified that depended for growth on this mix. If E. coli produces a growth factor, its identification can be efficiently performed, since a complete knockout library of this species is available. Testing knockout mutants identifies those that lost their ability to help growth of the uncultured organism, which then leads to the identification of the biosynthetic pathway of the growth factor. […] This organism is closely related to Porphyromonas sp. oral taxon 279 (99% similarity by 16S rRNA gene sequencing) (96% similarity to closest type strain Porphyromonas catoniae). In particular, KLE1280 is closely related to Porphyromonas catoniae (96% similarity by 16S rRNA gene sequencing). […] This deletion mutant has the menaquinone biosynthesis genes deleted. […] 5 genes in the menaquinone biosynthesis pathway are knocked out in this mutant (http://www.shigen.nig.ac.jp/ecoli/pec/quickSearch.List.DeletionsDetailAction.do?fromListFlag=true&classId=4&deId=226). E. coli strains with single gene deletions in the menaquinone biosynthesis pathway were tested for induction of growth.
Different quinones (Q), commercially available and/or isolated from E. coli and Micrococcus luteus were tested for induction of growth of KLE1280.
Different concentrations of MK4 were spotted on media with and without blood (5%) or hemin (10 μg/ml) or hemoglobin (100 μg/ml).

Flaviramulus sp. KLE1215 = test: Growth of KLE1215 in liquid culture with quinones delivered in liposomes; assay type: cell-based; conditions: R2A broth, 50% artificial sea salts, 0.001% Fe(II), MK4 250 μM to 1.5 mM, MK6 and MK6 chromenols purified from KLE1215
Method: The growth of Flaviramulus sp. KLE1215 is enhanced by the addition of purified quinone-like compounds when they are delivered in liposomes. […] Growth of KLE1215 induced with varying concentrations of MK4 delivered in liposomes. 5 ml liquid cultures of KLE1215 were set up with no supplement (squares), empty liposomes as liposome control (triangles), liposomes loaded with 250 μM MK4 (cross), liposomes loaded with 500 μM MK4 liposomes (asterisk), liposomes loaded with 750 μM MK4 (circle), liposomes loaded with 1 mM MK4 (vertical line), liposomes loaded with 1.25 mM MK4 (dark line), and liposomes loaded with 1.5 mM MK4 (light line) is shown in FIG. 8. […] broth (without yeast extract) with 50% artificial sea salts supplemented with 0.001% Fe(II) was used for these cultures. Values represent the average of two independent cultures of KLE1215 in […] broth with 50% artificial sea salts supplemented with 0.001% Fe(II). […] 5 ml liquid cultures of KLE1215 were prepared with nothing added (squares), empty liposome as liposome control (triangles), liposomes loaded with MK6 from KLE1215 (cross), and liposomes loaded with MK6 chromenols from KLE1215 (asterisk). R2A broth (without yeast extract) with 50% artificial sea salts supplemented with 0.001% Fe(II) was used for these cultures. Values represent the average of independent cultures of KLE1215 in […] broth with 50% artificial sea salts supplemented with 0.001% Fe(II).

Bizinio sp. KLE1402 = test: Growth of KLE1402 in liquid culture with quinone-loaded liposomes; assay type: cell-based; conditions: delivered by liposomes loaded with 500 μM MK4; R2A broth, 50% sea salts, 0.001% Fe(II)
Text: Two isolates were streaked for isolation; the culturable helper on the left induces the growth of unculturable KLE1402 on the right only when it is close proximity. The closest relative to the dependent KLE1402 is Bizionia echini (96.6% Identity according to 16S rRNA gene sequence), from the family Flavobacteriaceae. The closest relative to the helper KLE1403 is Ruegeria lacuscaerulensis (98.4% identity by 16S rRNA gene sequence), from the class Alphaproteobacteria. E. coli induces the growth of KLE1402 (FIG. 11). KLE1402 spread evenly on R2A with 50% artificial sea salts and 0.001% Fe(II) with a dense spot of E. coli. […] KLE1402 spread evenly on R2A with 50% artificial sea salts and 0.001% Fe(II) with a dense spot of E. coli ΔubiG. KLE1402 grows with the addition of quinone-loaded liposomes (FIG. 13). Cells of KLE1402 were used to inoculate culture tubes with 5 ml R2A broth with 50% sea salts and 0.001% Fe(II). Tube A: no supplement, Tube B: Empty liposomes added, Tube C: Liposomes loaded with 500 μM MK4 added. KLE1402 grows with the addition of quinone-loaded liposomes (FIG. 14). 5 ml liquid cultures of KLE1402 were set up with no supplement (squares), empty liposomes as liposome control (triangles), liposomes loaded with 500 μM MK4 (cross). R2A broth with 50% artificial sea salts supplemented with 0.001% Fe(II) was used as media for these cultures. […]

[1] = quinone isolated from M. luteus

## hemin
KLE1280; substance alone
  induction of growth of KLE1280: did not induce growth

## COC1=C(OC)C(=O)C(C/C=C(\C)CC/C=C(\C)CC/C=C(\C)CC/C=C(\C)CC/C=C(\C)CC/C=C(\C)CC/C=C(\C)CC/C=C(\C)CCC=C(C)C)=C(C)C1=O [Q9]
KLE1280; quinone commercially available
  Results: induction of growth of KLE1280: No induction

## O=C(O)c1cc(O)c2ccccc2c1O [DHNA, 1,4-dihydroxy-2-naphthoate]
KLE1280
  induction of growth of KLE1280: showed induction of growth

## menachromenal 6 [MK6 chromenols]
Flaviramulus sp. KLE1215
  growth of KLE1215: growth-enhancing effects

## COC1=C(OC)C(=O)C(C/C=C(\C)CCC=C(C)C)=C(C)C1=O [Q2]
KLE1280; quinone commercially available
  Results: induction of growth of KLE1280: No induction

## CC(C)=CCC/C(C)=C/CC/C(C)=C/CC/C(C)=C/CC/C(C)=C/CC/C(C)=C/CC/C(C)=C/CC/C(C)=C/CC1=C(C)C(=O)c2ccccc2C1=O [Menaquinone8]
KLE1280; quinone isolated from E. coli
  Results: induction of growth of KLE1280: No induction
KLE1280; [1]
  Results: induction of growth of KLE1280: Very less induction (late)

## COC1=C(OC)C(=O)C(C/C=C(\C)CC/C=C(\C)CC/C=C(\C)CC/C=C(\C)CC/C=C(\C)CC/C=C(\C)CC/C=C(\C)CC/C=C(\C)CC/C=C(\C)CCC=C(C)C)=C(C)C1=O [Q10]
KLE1280; quinone commercially available
  Results: induction of growth of KLE1280: No induction

## COC1=C(OC)C(=O)C(CC=C(C)C)=C(C)C1=O [Q1]
KLE1280; quinone commercially available
  Results: induction of growth of KLE1280: No induction

## COC1=C(OC)C(=O)C(C/C=C(\C)CC/C=C(\C)CC/C=C(\C)CC/C=C(\C)CC/C=C(\C)CC/C=C(\C)CCC=C(C)C)=C(C)C1=O [Ubiquinone7]
KLE1280; quinone isolated from E. coli
  Results: induction of growth of KLE1280: No induction

## COC1C(=O)C(C)=C(C/C=C(\C)CC/C=C(\C)CC/C=C(\C)CCC=C(C)C)C(=O)C1OC (stereo not drawn) [Q4]
KLE1280; quinone commercially available
  Results: induction of growth of KLE1280: No induction

## hemoglobin
KLE1280; substance alone
  induction of growth of KLE1280: did not induce growth

## CC(C)=CCC/C(C)=C/CC/C(C)=C/CC/C(C)=C/CC/C(C)=C/CC1=C(C)C(=O)c2ccccc2C1=O [Menaquinone5]
KLE1280; [1]
  Results: induction of growth of KLE1280: Induction

## CC(C)=CCC/C(C)=C/CC/C(C)=C/CC/C(C)=C/CC/C(C)=C/CC/C(C)=C/CC/C(C)=C/CC1=C(C)C(=O)c2ccccc2C1=O [Menaquinone7]
KLE1280; [1]
  Results: induction of growth of KLE1280: Very less induction (late)

## CC(C)=CCC/C(C)=C/CC/C(C)=C/CC/C(C)=C/CC/C(C)=C/CC/C(C)=C/CC1=C(C)C(=O)c2ccccc2C1=O [Menaquinone6]
Flaviramulus sp. KLE1215
  growth of KLE1215: growth-enhancing effects
KLE1280; [1]
  Results: induction of growth of KLE1280: Induction

## CC(C)=CCC/C(C)=C/CC/C(C)=C/CC/C(C)=C/CC1=C(C)C(=O)c2ccccc2C1=O [Menaquinone4]
Bizinio sp. KLE1402
  growth of KLE1402: can induce the growth
Flaviramulus sp. KLE1215
  growth of KLE1215: growth-enhancing effects
KLE1280
  induction of growth of KLE1280: induced growth
KLE1280; quinone commercially available
  Results: induction of growth of KLE1280: Induction
KLE1280; [1]
  Results: induction of growth of KLE1280: Induction
KLE1280; spotted on media with blood (5%) or hemin (10 μg/ml) or hemoglobin (100 μg/ml)
  induction of growth of KLE1280: induced growth only in the presence of either of these 3 in the medium
KLE1280; substance alone
  induction of growth of KLE1280: did not induce growth

## COC1=C(OC)C(=O)C(C/C=C(\C)CC/C=C(\C)CC/C=C(\C)CC/C=C(\C)CC/C=C(\C)CC/C=C(\C)CC/C=C(\C)CCC=C(C)C)=C(C)C1=O [Ubiquinone8]
KLE1280; quinone isolated from E. coli
  Results: induction of growth of KLE1280: No induction
